# Patent US8440628B2, “Medical compositions containing ghrelin” (Daiichi Sankyo Company, Limited, priority 2002, dated 2013)
# What was measured:
# [1] = Stability of human ghrelin(1-7)amide in pH-adjusted purified water at 25°C (Example 8); type: physicochemical; settings: for Peak area ratio to total peak area: 25±2°C
# Procedure: Human ghrelin(1-7)amide was dissolved in the purified water with about 0.12 μmol/mL (0.1 mg/mL). The pH of this solution was 5.0. This solution was divided into quarter, and one portion was kept alone and the pH values of the remaining three portions were adjusted to pH 1.8 (with 17 mM of hydrochloric acid), pH 4.1 (with 0.05 mM of hydrochloric acid) and pH 7.9 (with 0.20 mM of sodium hydroxide) respectively, by adding with hydrochloric acid or sodium hydroxide aqueous solution.
# These four solutions were stored at 25±2° C. for 1 and 3 day, and after storage, the HPLC analyses of each solutions were conducted to calculate the peak area ratio of human ghrelin(1-7)amide, desacyl human ghrelin(1-7)amide and [3-dehydroalanine]-human ghrelin(1-7)amide to the total peak area.
# [2] = compared with human ghrelin; cited from earlier work
# [3] = Adsorption inhibiting effect of anti-adsorbents on human ghrelin in glass and polypropylene test tubes (Example 9); type: physicochemical; settings: for Adsorption inhibiting effect: added at 0.01% or 0.1% to human ghrelin 1.0 μg/mL solution; for Human ghrelin concentration of the solution (Initial Conc. = 100): human ghrelin 1.0 μg/mL in 5% mannitol-0.05M glycine hydrochloride buffer (pH 3.5)
# Procedure: As the anti-adsorbent, the surfactant, that is, polyoxyethylene sorbitan monooleate (hereinafter, referred to as Tween® 80), and benzalkonium chloride were selected.
# The anti-adsorbent was added to this solution with 0.01% or 0.1% concentration.
# The human ghrelin concentrations of each solution were measured by HPLC method right after preparation, and these solutions were replaced in glass test tubes. After that, each solution were further replaced in new glass test tubes, and same operation was repeated for 5 and 10 times, then, the human ghrelin concentrations of each treated solution were measured by HPLC method. As a control, the solution not containing anti-adsorbent was examined.
# Same procedure was repeated by using test tube made by polypropylene instead of glass test tube.
# [4] = human ghrelin(1-7)amide 0.1 mg/mL in purified water adjusted to pH 1.8 with hydrochloric acid, 1 day after
# [5] = human ghrelin(1-7)amide 0.1 mg/mL in purified water adjusted to pH 1.8 with hydrochloric acid, 3 days after
# [6] = human ghrelin(1-7)amide 0.1 mg/mL in purified water adjusted to pH 1.8 with hydrochloric acid, before storage
# [7] = human ghrelin(1-7)amide 0.1 mg/mL in purified water adjusted to pH 4.1 with hydrochloric acid, 1 day after
# [8] = human ghrelin(1-7)amide 0.1 mg/mL in purified water adjusted to pH 4.1 with hydrochloric acid, 3 days after
# [9] = human ghrelin(1-7)amide 0.1 mg/mL in purified water adjusted to pH 4.1 with hydrochloric acid, before storage
# [10] = human ghrelin(1-7)amide 0.1 mg/mL in purified water adjusted to pH 7.9 with sodium hydroxide, 1 day after
# [11] = human ghrelin(1-7)amide 0.1 mg/mL in purified water adjusted to pH 7.9 with sodium hydroxide, 3 days after
# [12] = human ghrelin(1-7)amide 0.1 mg/mL in purified water adjusted to pH 7.9 with sodium hydroxide, before storage
# [13] = human ghrelin(1-7)amide 0.1 mg/mL in purified water, pH 5.0 (not adjusted), 1 day after
# [14] = human ghrelin(1-7)amide 0.1 mg/mL in purified water, pH 5.0 (not adjusted), 3 days after
# [15] = human ghrelin(1-7)amide 0.1 mg/mL in purified water, pH 5.0 (not adjusted), before storage
# [16] = anti-adsorbent 0.01%, Glass tube, replaced 5 times
# [17] = anti-adsorbent 0.01%, Glass tube, replaced 10 times
# [18] = anti-adsorbent 0.01%, Initial Conc.
# [19] = anti-adsorbent 0.01%, Polypropylene tube, replaced 5 times
# [20] = anti-adsorbent 0.01%, Polypropylene tube, replaced 10 times
# [21] = anti-adsorbent 0.1%, Glass tube, replaced 5 times
# [22] = anti-adsorbent 0.1%, Glass tube, replaced 10 times
# [23] = anti-adsorbent 0.1%, Initial Conc.
# [24] = anti-adsorbent 0.1%, Polypropylene tube, replaced 5 times
# [25] = anti-adsorbent 0.1%, Polypropylene tube, replaced 10 times
"Human ghrelin concentration of the solution (Initial Conc. = 100) [3, 16]","Human ghrelin concentration of the solution (Initial Conc. = 100) [3, 17]","Human ghrelin concentration of the solution (Initial Conc. = 100) [3, 18]","Human ghrelin concentration of the solution (Initial Conc. = 100) [3, 19]","Human ghrelin concentration of the solution (Initial Conc. = 100) [3, 20]","Human ghrelin concentration of the solution (Initial Conc. = 100) [3, 21]","Human ghrelin concentration of the solution (Initial Conc. = 100) [3, 22]",Substance,"Peak area ratio to total peak area [1, 4] [%]","Peak area ratio to total peak area [1, 5] [%]","Peak area ratio to total peak area [1, 6] [%]","Peak area ratio to total peak area [1, 7] [%]","Peak area ratio to total peak area [1, 8] [%]","Peak area ratio to total peak area [1, 9] [%]","Peak area ratio to total peak area [1, 10] [%]","Peak area ratio to total peak area [1, 11] [%]","Peak area ratio to total peak area [1, 12] [%]","Peak area ratio to total peak area [1, 13] [%]","Peak area ratio to total peak area [1, 14] [%]","Peak area ratio to total peak area [1, 15] [%]",Adsorption inhibiting effect [3],also measured
,,,,,,,Human ghrelin(1-7)amide,95.40,90.11,98.39,98.68,98.60,98.76,95.89,92.54,98.22,98.57,98.51,98.69,,"Production of the degradation products ([1]; aqueous solution of pH 4.1 and 5.0, 25±2°C, up to 3 days): inhibited; Peak area ratio to total peak area ([1]; human ghrelin(1-7)amide 0.1 mg/mL in purified water adjusted to pH 1.8 with hydrochloric acid, 1 day after, listed as human ghrelin(1-7)amide): less than 98%; Peak area ratio to total peak area ([1]; human ghrelin(1-7)amide 0.1 mg/mL in purified water adjusted to pH 7.9 with sodium hydroxide, 1 day after, listed as human ghrelin(1-7)amide): less than 98%; pH of the solution ([1]; human ghrelin(1-7)amide dissolved in purified water, about 0.12 μmol/mL (0.1 mg/mL)): 5.0; Biological activity [2]: same biological activity as human ghrelin"
,,,,,,,[3-dehydroalanine]-human ghrelin(1-7)amide,0.07,0.10,0.02,0.03,0.01,0.00,0.23,0.54,0.03,0.02,0.06,0.00,,
81,64,100,97,96,99,99,benzalkonium chloride,,,,,,,,,,,,,high adsorption inhibiting effect against both glass tube and polypropylene tube,"Human ghrelin concentration of the solution (Initial Conc. = 100) [3, 23]: 100; Human ghrelin concentration of the solution (Initial Conc. = 100) [3, 24]: 99; Human ghrelin concentration of the solution (Initial Conc. = 100) [3, 25]: 101"
,,,,,,,desacyl human ghrelin(1-7)amide,3.75,8.89,0.98,0.73,0.77,0.72,3.21,6.21,1.12,0.73,0.79,0.70,,
17,0,100,90,90,20,5,polyoxyethylene sorbitan monooleate [Tween 80],,,,,,,,,,,,,high adsorption inhibiting effect against polypropylene tube,"Human ghrelin concentration of the solution (Initial Conc. = 100) [3, 23]: 100; Human ghrelin concentration of the solution (Initial Conc. = 100) [3, 24]: 93; Human ghrelin concentration of the solution (Initial Conc. = 100) [3, 25]: 91"
